Experimental data from PubChem BioAssay (NCI).
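Compound exposure: 48 hours, 5 concentrations, 96-well plates. GI50 = concentration required for 50% inhibition of growth. TGI marks complete inhibition of growth.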

Columns and labels:
Assay in all cases: NCI tumour cell line growth inhibition, 48 h
DU-145 prostate = test system: DU-145 prostate
SF-539 CNS = test system: SF-539 CNS
TK-10 renal = test system: TK-10 renal
MDA-MB-231 breast = test system: MDA-MB-231 breast
BT-549 breast = test system: BT-549 breast
A498 renal = test system: A498 renal
MOLT-4 leukemia = test system: MOLT-4 leukemia
RPMI-8226 leukemia = test system: RPMI-8226 leukemia
SW-620 colon = test system: SW-620 colon
UACC-62 melanoma = test system: UACC-62 melanoma
UO-31 renal = test system: UO-31 renal
KM12 colon = test system: KM12 colon
MCF7 breast = test system: MCF7 breast
LOX IMVI melanoma = test system: LOX IMVI melanoma
NCI/ADR-RES ovarian = test system: NCI/ADR-RES ovarian
MDA-MB-435 = test system: MDA-MB-435
SNB-19 CNS = test system: SNB-19 CNS
UACC-257 melanoma = test system: UACC-257 melanoma
ACHN renal = test system: ACHN renal
SNB-75 CNS = test system: SNB-75 CNS
MALME-3M melanoma = test system: MALME-3M melanoma
COLO 205 colon = test system: COLO 205 colon
HS 578T breast = test system: HS 578T breast
EKVX NSCLC = test system: EKVX NSCLC
NCI-H226 lung = test system: NCI-H226 lung
U251 CNS = test system: U251 CNS
A549 NSCLC = test system: A549 NSCLC
NCI-H460 lung = test system: NCI-H460 lung
CAKI-1 renal = test system: CAKI-1 renal
HT29 colon = test system: HT29 colon
OVCAR-3 ovarian = test system: OVCAR-3 ovarian
SK-MEL-5 melanoma = test system: SK-MEL-5 melanoma
OVCAR-4 ovarian = test system: OVCAR-4 ovarian
OVCAR-5 ovarian = test system: OVCAR-5 ovarian
K-562 leukemia = test system: K-562 leukemia
SR leukemia = test system: SR leukemia
HCC-2998 colon = test system: HCC-2998 colon
HCT-116 colon = test system: HCT-116 colon
RXF 393 renal = test system: RXF 393 renal
SK-OV-3 ovarian = test system: SK-OV-3 ovarian
CCRF-CEM leukemia = test system: CCRF-CEM leukemia
SN12C renal = test system: SN12C renal
NCI-H23 lung = test system: NCI-H23 lung
IGROV1 ovarian = test system: IGROV1 ovarian
NCI-H522 lung = test system: NCI-H522 lung
SF-268 CNS = test system: SF-268 CNS
HOP-92 NSCLC = test system: HOP-92 NSCLC
HCT-15 colon = test system: HCT-15 colon
OVCAR-8 ovarian = test system: OVCAR-8 ovarian
T-47D breast = test system: T-47D breast
HOP-62 NSCLC = test system: HOP-62 NSCLC
786-0 renal = test system: 786-0 renal
HL-60(TB) leukemia = test system: HL-60(TB) leukemia
M14 melanoma = test system: M14 melanoma
PC-3 prostate = test system: PC-3 prostate
SK-MEL-2 melanoma = test system: SK-MEL-2 melanoma
SK-MEL-28 melanoma = test system: SK-MEL-28 melanoma
SF-295 CNS = test system: SF-295 CNS

Cc1ccc(-c2cc(-c3ccc(C)cc3)nc(N3CCN(CCNc4ccnc5cc(Cl)ccc45)CC3)n2)cc1
GI50 (DU-145 prostate): 2.06 µM | TGI (DU-145 prostate): 8.5 µM | GI50 (SF-539 CNS): 1.68 µM | TGI (SF-539 CNS): 5.84 µM | GI50 (TK-10 renal): 2.29 µM | TGI (TK-10 renal): 8.12 µM | GI50 (MDA-MB-231 breast): 2.52 µM | TGI (MDA-MB-231 breast): 9.19 µM | GI50 (BT-549 breast): 6.06 µM | TGI (BT-549 breast): 17 µM | GI50 (A498 renal): 9.69 µM | TGI (A498 renal): 30.4 µM | GI50 (MOLT-4 leukemia): 6.25 µM | TGI (MOLT-4 leukemia): > 50 µM | GI50 (RPMI-8226 leukemia): 3.48 µM | TGI (RPMI-8226 leukemia): > 50 µM | GI50 (SW-620 colon): 1.82 µM | TGI (SW-620 colon): 6.32 µM | GI50 (UACC-62 melanoma): 5.54 µM | TGI (UACC-62 melanoma): 12.6 µM | GI50 (UO-31 renal): 1.16 µM | TGI (UO-31 renal): 5.53 µM | GI50 (KM12 colon): 5.7 µM | TGI (KM12 colon): 39.2 µM | GI50 (MCF7 breast): 2.11 µM | TGI (MCF7 breast): 13.4 µM | GI50 (LOX IMVI melanoma): 1.82 µM | TGI (LOX IMVI melanoma): 6.07 µM | GI50 (NCI/ADR-RES ovarian): 2.53 µM | TGI (NCI/ADR-RES ovarian): 11.1 µM | GI50 (MDA-MB-435): 1.76 µM | TGI (MDA-MB-435): 6.85 µM | GI50 (SNB-19 CNS): 6.51 µM | TGI (SNB-19 CNS): 15 µM | GI50 (UACC-257 melanoma): 1.91 µM | TGI (UACC-257 melanoma): 6.88 µM | GI50 (ACHN renal): 6.18 µM | TGI (ACHN renal): 14.5 µM | GI50 (SNB-75 CNS): 0.949 µM | TGI (SNB-75 CNS): 2.23 µM | GI50 (MALME-3M melanoma): 1.07 µM | TGI (MALME-3M melanoma): 2.28 µM | GI50 (COLO 205 colon): 1.71 µM | TGI (COLO 205 colon): 8.76 µM | GI50 (HS 578T breast): 1.41 µM | TGI (HS 578T breast): 4.56 µM | GI50 (EKVX NSCLC): 5.65 µM | TGI (EKVX NSCLC): 20 µM | GI50 (NCI-H226 lung): 5.13 µM | TGI (NCI-H226 lung): 18.1 µM | GI50 (U251 CNS): 1.43 µM | TGI (U251 CNS): 5.39 µM | GI50 (A549 NSCLC): 3.62 µM | TGI (A549 NSCLC): 13.3 µM | GI50 (NCI-H460 lung): 2.21 µM | TGI (NCI-H460 lung): 9.2 µM | GI50 (CAKI-1 renal): 7.56 µM | TGI (CAKI-1 renal): 16.4 µM | GI50 (HT29 colon): 1.51 µM | TGI (HT29 colon): 7.26 µM | GI50 (OVCAR-3 ovarian): 1.29 µM | TGI (OVCAR-3 ovarian): 3.26 µM | GI50 (SK-MEL-5 melanoma): 6.65 µM | TGI (SK-MEL-5 melanoma): 18.3 µM | GI50 (OVCAR-4 ovarian): 0.912 µM | TGI (OVCAR-4 ovarian): 1.9 µM | GI50 (OVCAR-5 ovarian): 3.84 µM | TGI (OVCAR-5 ovarian): 17.6 µM | GI50 (K-562 leukemia): 2.4 µM | TGI (K-562 leukemia): > 50 µM | GI50 (SR leukemia): 0.675 µM | TGI (SR leukemia): > 50 µM | GI50 (HCC-2998 colon): 4.82 µM | TGI (HCC-2998 colon): 16.2 µM | GI50 (HCT-116 colon): 1.66 µM | TGI (HCT-116 colon): 6.91 µM | GI50 (RXF 393 renal): 1.45 µM | TGI (RXF 393 renal): 7.36 µM | GI50 (SK-OV-3 ovarian): 5.49 µM | TGI (SK-OV-3 ovarian): 14.2 µM | GI50 (CCRF-CEM leukemia): 1.77 µM | TGI (CCRF-CEM leukemia): > 50 µM | GI50 (SN12C renal): 4.71 µM | TGI (SN12C renal): 14.7 µM | GI50 (NCI-H23 lung): 3.63 µM | TGI (NCI-H23 lung): 17.5 µM | GI50 (IGROV1 ovarian): 3.08 µM | TGI (IGROV1 ovarian): 12.3 µM | GI50 (NCI-H522 lung): 5.65 µM | TGI (NCI-H522 lung): 22 µM | GI50 (SF-268 CNS): 4.88 µM | TGI (SF-268 CNS): 21.9 µM | GI50 (HOP-92 NSCLC): 0.963 µM | TGI (HOP-92 NSCLC): 4.25 µM | GI50 (HCT-15 colon): 3.42 µM | TGI (HCT-15 colon): 24.5 µM | GI50 (OVCAR-8 ovarian): 2.17 µM | TGI (OVCAR-8 ovarian): 9.65 µM | GI50 (T-47D breast): 3.21 µM | TGI (T-47D breast): 17.9 µM | GI50 (HOP-62 NSCLC): 1.58 µM | TGI (HOP-62 NSCLC): 6.52 µM | GI50 (786-0 renal): 1.81 µM | TGI (786-0 renal): 6.95 µM | GI50 (HL-60(TB) leukemia): 2.42 µM | TGI (HL-60(TB) leukemia): 11.6 µM | GI50 (M14 melanoma): 1.9 µM | TGI (M14 melanoma): 8.45 µM | GI50 (PC-3 prostate): 3.14 µM | TGI (PC-3 prostate): 30.9 µM | GI50 (SK-MEL-2 melanoma): 7.89 µM | TGI (SK-MEL-2 melanoma): 20.3 µM | GI50 (SK-MEL-28 melanoma): 1.91 µM | TGI (SK-MEL-28 melanoma): 9.82 µM | GI50 (SF-295 CNS): 5.27 µM | TGI (SF-295 CNS): 15.4 µM
